Data from patent publication US20240010726A1, “LFA-1 SIGNALLING MEDIATOR FOR USE IN CANCER THERAPY” (Universität Basel, priority 2020, published 2024).

How the values were obtained:
LFA-1 = target: T1, LFA-1 (Homo sapiens, UniProt P05107+P20701); assay: Co-culture assay with Blinatumomab, LFA-1 head-piece opening on PHA-blasts; type: cell-based; conditions: 30 min co-culture with Ramos cells; Blinatumomab 300 pg ml^−1; ±Mg^2+
T1 construct: endogenous in cells; host or cells: primary human T cells from healthy donors: PHA-induced T cell blasts, sorted EM and naive CD8 T cells, and NY-ESO-1 TCR-transduced REP T cells
Protocol: FIG. 3: Magnesium regulates LFA-1 mediated T cell activation and cytotoxicity as well BiTE- and CAR T-cell functionality. (a) Glycolytic switch of murine WT and LFA-1^−/− CTLs upon injection of anti-CD3/28 Ab in medium containing 1.2 mM Mg^2+ and 0 mM Mg^2+, presented as quantification of summarized data with n=4 mice. (b) Calcium flux in WT and LFA-1^−/− Jurkat T cells stimulated with anti-CD3 Ab in 1.2 mM and 0 mM Mg^2+ medium, respectively. Cells were loaded with Fluo4, and signal intensity as recorded by plate reader, was normalized to unstimulated baseline values. […] Quantified results of n=3 mice with 3 technical replicates each. […] Results are quantified of n=3 mice with 3 technical replicates each. (e) Representative CD11a (LFA-1) surface expression on human naïve and EM CD8 T cells, PHA T cell blasts and REP T cells, assessed by flow cytometry. […] Data is presented as quantified results of n=5 healthy donors (f, g, h), n=3 healthy donors with 2 technical replicates each or n=1 healthy donor with 4 technical replicates (j). […] Data is presented as quantified results of n=1 healthy donor with 4 technical replicates. […] Cytotoxicity is reported as total area under the curve of the fluorescence driven by incorporation of cytotoxic green reagent in dead target cells (green area per μm^2). […]

[1] = system: anti-PSMA CAR T cells co-cultured with PC3-PIP; assay: Cytokine release assay of anti-PSMA CAR T cells (IFNγ ELISA); type: cell-based, human; conditions: 24 h; 0 mM vs 0.6 mM Mg^2+
Protocol: FIG. 3: Magnesium regulates LFA-1 mediated T cell activation and cytotoxicity as well BiTE- and CAR T-cell functionality. (a) Glycolytic switch of murine WT and LFA-1^−/− CTLs upon injection of anti-CD3/28 Ab in medium containing 1.2 mM Mg^2+ and 0 mM Mg^2+, presented as quantification of summarized data with n=4 mice. (b) Calcium flux in WT and LFA-1^−/− Jurkat T cells stimulated with anti-CD3 Ab in 1.2 mM and 0 mM Mg^2+ medium, respectively. Cells were loaded with Fluo4, and signal intensity as recorded by plate reader, was normalized to unstimulated baseline values. […] Quantified results of n=3 mice with 3 technical replicates each. […] The effector to target cell ratio was 3:1. Results are quantified of n=3 mice with 3 technical replicates each. (e) Representative CD11a (LFA-1) surface expression on human naïve and EM CD8 T cells, PHA T cell blasts and REP T cells, assessed by flow cytometry. […] The effector to target cell ratio was 1:1. Data is presented as quantified results of n=5 healthy donors (f, g, h), n=3 healthy donors with 2 technical replicates each or n=1 healthy donor with 4 technical replicates (j). […] Data is presented as quantified results of n=1 healthy donor with 4 technical replicates. […] (p) Abundance of IFNγ in cell culture supernatants corresponding to the conditions depicted in (o) at 24 hours was determined by ELISA (n=8, 3 independent experiments). […]

T1 sequence (P20701 26-1170): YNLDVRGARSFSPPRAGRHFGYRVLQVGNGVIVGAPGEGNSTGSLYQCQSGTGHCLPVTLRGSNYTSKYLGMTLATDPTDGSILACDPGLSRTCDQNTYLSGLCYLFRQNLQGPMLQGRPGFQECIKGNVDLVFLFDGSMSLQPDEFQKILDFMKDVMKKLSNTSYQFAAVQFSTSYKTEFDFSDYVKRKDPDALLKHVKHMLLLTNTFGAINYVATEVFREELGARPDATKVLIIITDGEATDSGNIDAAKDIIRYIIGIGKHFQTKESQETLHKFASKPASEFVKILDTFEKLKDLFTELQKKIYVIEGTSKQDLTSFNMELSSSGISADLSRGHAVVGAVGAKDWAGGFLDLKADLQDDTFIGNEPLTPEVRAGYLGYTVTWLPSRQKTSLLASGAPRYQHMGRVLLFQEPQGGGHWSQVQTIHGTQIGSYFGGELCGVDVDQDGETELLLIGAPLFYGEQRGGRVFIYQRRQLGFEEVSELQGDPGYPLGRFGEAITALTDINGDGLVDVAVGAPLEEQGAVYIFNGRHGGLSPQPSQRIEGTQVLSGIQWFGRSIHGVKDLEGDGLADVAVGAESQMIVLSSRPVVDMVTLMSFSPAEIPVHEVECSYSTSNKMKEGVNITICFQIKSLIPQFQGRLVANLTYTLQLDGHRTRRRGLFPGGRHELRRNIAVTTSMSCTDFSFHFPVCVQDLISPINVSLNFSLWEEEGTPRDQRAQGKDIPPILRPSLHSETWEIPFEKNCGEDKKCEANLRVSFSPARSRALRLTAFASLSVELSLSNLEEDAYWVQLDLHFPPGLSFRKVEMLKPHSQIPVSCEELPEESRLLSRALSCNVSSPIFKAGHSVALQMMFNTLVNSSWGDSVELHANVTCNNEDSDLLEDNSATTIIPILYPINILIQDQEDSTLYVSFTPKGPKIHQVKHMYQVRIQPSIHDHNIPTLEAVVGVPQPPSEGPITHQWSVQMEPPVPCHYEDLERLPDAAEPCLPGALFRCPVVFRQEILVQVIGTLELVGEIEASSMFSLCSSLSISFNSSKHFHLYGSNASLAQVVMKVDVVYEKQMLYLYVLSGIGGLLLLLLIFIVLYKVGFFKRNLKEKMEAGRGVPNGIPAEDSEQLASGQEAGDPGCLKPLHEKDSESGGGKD
T1 sequence (P05107 23-769): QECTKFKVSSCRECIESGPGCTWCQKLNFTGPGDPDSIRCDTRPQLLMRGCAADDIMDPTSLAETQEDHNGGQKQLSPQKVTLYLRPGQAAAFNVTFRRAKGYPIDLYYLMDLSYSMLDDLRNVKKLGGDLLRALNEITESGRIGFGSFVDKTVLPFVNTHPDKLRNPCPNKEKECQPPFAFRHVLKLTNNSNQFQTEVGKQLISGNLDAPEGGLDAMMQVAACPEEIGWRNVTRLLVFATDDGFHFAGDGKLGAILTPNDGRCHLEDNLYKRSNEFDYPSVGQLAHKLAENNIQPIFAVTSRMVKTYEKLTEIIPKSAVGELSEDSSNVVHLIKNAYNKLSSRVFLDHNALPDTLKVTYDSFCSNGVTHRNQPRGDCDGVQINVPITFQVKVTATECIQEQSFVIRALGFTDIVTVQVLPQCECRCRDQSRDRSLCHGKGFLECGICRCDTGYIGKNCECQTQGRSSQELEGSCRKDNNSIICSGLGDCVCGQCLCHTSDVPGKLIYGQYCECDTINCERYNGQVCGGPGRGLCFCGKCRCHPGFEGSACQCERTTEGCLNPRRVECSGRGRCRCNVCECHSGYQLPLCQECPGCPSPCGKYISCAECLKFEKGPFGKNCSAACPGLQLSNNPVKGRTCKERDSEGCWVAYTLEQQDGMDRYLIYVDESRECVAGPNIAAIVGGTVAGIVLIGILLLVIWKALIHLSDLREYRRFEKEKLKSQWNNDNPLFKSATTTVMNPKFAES

Q: How did the “Activation-induced LFA-1 head-piece opening on PHA-blasts” value (LFA-1) turn out when [Mg+2] [Mg^2+, Magnesium] was run?
A: The value was “Mg^2+-dependent”.

Q: And the IFNγ release [1]?
A: Its IFNγ release is “reduced inflammatory IFNγ release”.
